# From PMC2920546, “Preclinical Pharmacology of BA-TPQ, a Novel Synthetic Iminoquinone Anticancer Agent” (Marine Drugs, 2010)
# Tests used:
# [1] = system: prostate and breast cancer cell lines; set-up: method as in PMID 19274441, PMID 19936915; conditions: cell lines with varying p53 status; cited from earlier work
# [2] = Pharmacokinetics and tissue distribution in nude mice; type: in vivo
# Experimental: Female ICR/CD-1 (18–20 g) mice were purchased from Harlan Laboratories (Indianapolis, IN), and female nude mice (nu/nu; 4–6 weeks) were purchased from Frederick Cancer Research and Development Center (Frederick, MD). All animal use and care procedures were approved by the Institutional Animal Care and Use Committee (IACUC) of the University of Alabama at Birmingham. All animals were fed with commercial diet and water ad libitum and were on an alternating 12 h light/dark cycle.
# CD-1 and nude mice were randomly divided into groups of three, and were dosed either intravenously (5 mg/kg) or intraperitoneally (10 mg/kg) with BA-TPQ in PEG 400:ethanol:0.9% saline (57.1%:14.3%:28.6%). Before dosing, and at 5, 15, 30, 60 min, and 2, 4, 8, and 24 h after dosing, groups of animals (three/time point) were anesthetized, and blood was collected from the retro-orbital sinus into heparinized tubes. Plasma was obtained by centrifuging the blood samples at 14,000 rpm for 15 min. BA-TPQ was then extracted from plasma and stored at −80 °C. The brain, heart, kidneys, liver, lungs, and spleen were also collected at the same time points during necropsy, blotted on Whatman No. 1 filter paper, trimmed of extraneous fat and connective tissue, weighed, and homogenized in phosphate-buffered saline. The resulting homogenates were stored at −80 °C until further processing and analysis. Urine and feces were collected for 24 hr from mice housed in metabolic cages. After collection, the cages were also washed twice with 200 μL PBS, and the washes were collected and analyzed separately. The total urine was determined as the amount from the urine plus washes 1 and 2. Feces were homogenized in PBS, then extracted using the same procedure used for tissues.
# Six hundred microliters of acetonitrile was added to 200 μL of plasma, urine, cage washes (first and second), or tissue/feces homogenate in an Eppendorf tube to precipitate proteins. After centrifugation at 14,000 rpm for 10 min, the supernatant was transferred to a glass tube and evaporated to dryness using a TurboVap® LV Concentration Workstation (Caliper Lifesciences, Hopkinton, MA). The residue was reconstituted with 500 μL ethyl acetate, sonicated for 10 min, and vortexed for 10 sec. Samples were then centrifuged again and the resulting supernatant was transferred to a new glass tube and evaporated to dryness. Finally, samples were reconstituted in 100 μL mobile phase, and 50 μL was injected into the HPLC system for analysis.
# The averages of the BA-TPQ concentration in plasma and tissues following intravenous and intraperitoneal administration to three animals per time point were used for pharmacokinetic analyses using a two-compartmental model and a non-compartment model, respectively. The following pharmacokinetic parameters were estimated using Phoenix WinNonlin 6.0 (Mountain View, CA): area under the concentration-time curve (AUC, h·μg/mL), half-life (T½, h), maximum concentration (Cmax, μg/mL), time of the maximum concentration (Tmax, h), and clearance (CL, mL/h/kg), as applicable. Bioavailability (X) was calculated as X= [AUCip × doseiv]/[AUCiv × doseip].
# [3] = system: breast and prostate xenograft tumors; conditions: cited from earlier work
# [4] = Stability of BA-TPQ in mouse plasma; type: in vitro ADME; conditions: for Amount Remaining: mouse plasma
# Experimental: The stability of BA-TPQ was evaluated at two concentrations (0.5 and 5.0 μM). The compound was incubated under the following conditions: 37 °C for 0, 1, 2, 4, and 8 h; 4 °C for 0, 1, 4, 8, and 24 h; and −80 °C for 0, 1, 2, and 4 weeks. At the designated time points, the samples were extracted and analyzed using the established HPLC analytical method. The stability of the iminoquinone was assessed by comparing the initial concentration (time 0) with the final concentration following incubation of the compound at the noted temperatures, and expressing this difference as a percentage of the initial concentration.
# [5] = female, nude (nu/nu), mouse, brain, IP 10 mg/kg
# [6] = female, nude (nu/nu), mouse, brain, IV 5 mg/kg
# [7] = female, nude (nu/nu), mouse, heart, IP 10 mg/kg
# [8] = female, nude (nu/nu), mouse, heart, IV 5 mg/kg
# [9] = female, nude (nu/nu), mouse, kidneys, IP 10 mg/kg
# [10] = female, nude (nu/nu), mouse, kidneys, IV 5 mg/kg
# [11] = female, nude (nu/nu), mouse, liver, IP 10 mg/kg
# [12] = female, nude (nu/nu), mouse, liver, IV 5 mg/kg
# [13] = female, nude (nu/nu), mouse, lungs, IP 10 mg/kg
# [14] = female, nude (nu/nu), mouse, lungs, IV 5 mg/kg
# [15] = female, nude (nu/nu), mouse, plasma, IP 10 mg/kg
# [16] = female, nude (nu/nu), mouse, plasma, IV 5 mg/kg
# [17] = female, nude (nu/nu), mouse, spleen, IP 10 mg/kg
# [18] = female, nude (nu/nu), mouse, spleen, IV 5 mg/kg
smiles,measurement,setting,value
"O=C1C(NCc2ccccc2)=CC2=NCCc3c[nH]c1c32 [BA-TPQ, 7-(benzylamino)-1,3,4,8-tetrahydropyrrolo[4,3,2-de]quinolin-8(1H)-one]",In vitro growth of prostate and breast cancer cell lines,[1],inhibit in vitro growth
same,Time of greatest plasma concentration,[2]; IP 10 mg/kg,1 h
same,Cl,"[2]; brain, IP 10 mg/kg",650 mL/min/kg
same,AUC,[2]; [5],770 ng·h/mL
same,Cmax,[2]; [5],90 ng/mL
same,Tmax,[2]; [5],60 min
same,half-life,[2]; [5],244 min
same,AUC,[2]; [6],340 ng·h/mL
same,Cmax,[2]; [6],620 ng/mL
same,clearance,[2]; [6],1730 mL/min/kg
same,half-life,[2]; [6],22.8 min
same,AUC,[2]; [7],7630 ng·h/mL
same,Cmax,[2]; [7],6380 ng/mL
same,Tmax,[2]; [7],15 min
same,half-life,[2]; [7],30 min
same,AUC,[2]; [8],6370 ng·h/mL
same,Cmax,[2]; [8],48800 ng/mL
same,clearance,[2]; [8],83.3 mL/min/kg
same,half-life,[2]; [8],5.4 min
same,AUC,[2]; [9],12600 ng·h/mL
same,Cmax,[2]; [9],10800 ng/mL
same,Tmax,[2]; [9],30 min
same,half-life,[2]; [9],29.4 min
same,AUC,[2]; [10],5480 ng·h/mL
same,Cmax,[2]; [10],20800 ng/mL
same,clearance,[2]; [10],100 mL/min/kg
same,half-life,[2]; [10],10.8 min
same,AUC,[2]; [11],2760 ng·h/mL
same,Cmax,[2]; [11],4560 ng/mL
same,Tmax,[2]; [11],4.8 min
same,half-life,[2]; [11],31.8 min
same,AUC,[2]; [12],710 ng·h/mL
same,Cmax,[2]; [12],2710 ng/mL
same,clearance,[2]; [12],817 mL/min/kg
same,half-life,[2]; [12],10.8 min
same,AUC,[2]; [13],13200 ng·h/mL
same,Cmax,[2]; [13],14800 ng/mL
same,Tmax,[2]; [13],4.8 min
same,half-life,[2]; [13],35.4 min
same,AUC,[2]; [14],9180 ng·h/mL
same,Cmax,[2]; [14],18400 ng/mL
same,clearance,[2]; [14],66.7 mL/min/kg
same,half-life,[2]; [14],21 min
same,AUC,[2]; [15],150 ng·h/mL
same,Cmax,[2]; [15],220 ng/mL
same,Tmax,[2]; [15],15 min
same,half-life,[2]; [15],70.2 min
same,bioavailability,"[2]; female, nude (nu/nu), mouse, plasma, IP 10 mg/kg vs IV 5 mg/kg, read-out: Intraperitoneal bioavailability",100%
same,AUC,[2]; [16],40 ng·h/mL
same,Cmax,[2]; [16],150 ng/mL
same,half-life,[2]; [16],10.2 min
same,AUC,[2]; [17],18300 ng·h/mL
same,Cmax,[2]; [17],31200 ng/mL
same,Tmax,[2]; [17],15 min
same,half-life,[2]; [17],99 min
same,AUC,[2]; [18],4980 ng·h/mL
same,Cmax,[2]; [18],11000 ng/mL
same,clearance,[2]; [18],117 mL/min/kg
same,half-life,[2]; [18],18.6 min
same,Cl,"[2]; heart, IP 10 mg/kg",83 mL/min/kg
same,Cl,"[2]; kidneys, IP 10 mg/kg",50 mL/min/kg
same,Cl,"[2]; liver, IP 10 mg/kg",217 mL/min/kg
same,Cl,"[2]; lungs, IP 10 mg/kg",50 mL/min/kg
same,Cl,"[2]; plasma, IP 10 mg/kg",3920 mL/min/kg
same,Cl,"[2]; spleen, IP 10 mg/kg",33 mL/min/kg
same,Death in mice on repeated dosing,"[3]; 10 mg/kg, three times per week for up to six weeks",does not cause death
same,Toxicity in mice (weight loss),"[3]; especially at 10 mg/kg, 3 days/week for several weeks",systemic toxicity
same,Tumor growth in mouse xenograft models,[3]; prostate and breast cancer xenografts,inhibit tumor growth
same,Stability in mouse plasma (in words),"[4]; 37 °C, 4 °C and −80 °C, 0.5 μM and 5.0 μM",very stable
same,Amount Remaining,"[4]; 4 °C, 24 hr, 0.5 μM",94%
same,Amount Remaining,"[4]; 4 °C, 24 hr, 5.0 μM",117%
same,Amount Remaining,"[4]; 37 °C, 8 hr, 0.5 μM",92%
same,Amount Remaining,"[4]; 37 °C, 8 hr, 5.0 μM",114%
same,Amount Remaining,"[4]; −80 °C, 4 weeks, 0.5 μM",95%
same,Amount Remaining,"[4]; −80 °C, 4 weeks, 5.0 μM",100%
